The text below walks through data of patent publication US20200164005A1, “PHARMACEUTICAL COMPOSITIONS OF A BILE ACID DERIVATIVE AND MICROBIOME AND USES THEREOF” (Intercept Pharmaceuticals, Inc., priority 2017, published 2020).

Data set [1] has as its system MetaCyc pathways of the gut microbiome. Briefly: MetaCyc pathway differential abundance analysis of stool metagenome. In kind it is in vivo, human. The source says: (§1) HUMAnN2 (Abubucker et al., PLoS Comput. Biol. 8, e1002358 (2012)) was used to calculate gene and pathway abundance from metagenomic sequencing data. Uniref50 (UniProt® Consortium, Nucleic Acids Res. 43, D204 (2015)) was used for gene family definition. MetaCyc (Caspi et al., Nucleic Acids Res. 42, D459 (2014)) and KEGG (Kanehisa and Goto, Nucleic Acids Res. 28, 27 (2000); Kanehisa et al., Nucleic Acids Res. 44, D457 (2016)) were used for pathway analysis. • Gene family identification: Initially, 989251 gene families were identified from the dataset by HUMAnN2. Quantile normalization was implemented. For each sample, the RPK values were added up till 90% percentile of all genes (normalization factor, nf). RPK value of each gene in each sample was then divided by the nf of the sample, and multiplied with the mean of nf of all samples. 683270 uncharacterized genes were removed. Genes undetected in over 90% of samples (101994) were removed. 203987 genes were kept. Due to the large number of genes identified, 25% of the most varying genes were selected for further analysis. The most varying genes were defined by the coefficient variation (cv=sd/mean) of log 2 transformed value. • MetaCyc pathway identification: HUMAnN2 identified 567 MetaCyc pathways from the dataset. Quantile normalization was then performed. For each sample, the abundance values were added up till 90% percentile of all pathways (normalization factor, nf). Each pathway abundance in each sample was divided by the nf of the sample, and then multiplied with the mean of nf for all samples. The low abundance pathways (52), which were not detected on over 90% of all samples, were removed. 515 high quality MetaCyc pathways were kept for further analysis. • KEGG pathway identification: HUMAnN2 identified 160 KEGG pathways from the dataset. Quantile normalization was applied, and low abundance pathways were removed. 66 high quality KEGG pathways were kept for further analysis.
(§2) gene abundance˜aov(day*OCAdose+error(subject ID)) • Pathway differential abundance analysis: For each of the identified pathways, repeated measure ANOVA was also performed to study the time effect and OCA dose effect on pathway abundance change.
pathway abundance˜aov(day*OCAdose+error(subject ID)) • FGF19 analysis: The GEE model was applied in order to study the relationship of FGF19 change with the microbiome, gene family, and the pathway abundance change over time. The R function geeglm from R package geepack was used for gee modeling. Both FGF19 level and species/gene/pathway relative abundance were log 2 transformed before applying GEE model. […]

The subject of data set [2] is KEGG pathways of the gut microbiome. Briefly: KEGG pathway differential abundance analysis of stool metagenome. Format: in vivo, human. Details: key to * (direction of KEGG pathway change): “↑” means the pathway is up-regulated on day 16; “↓” means the pathway is down-regulated on day 16. Conditions: for * (direction of KEGG pathway change): KEGG pathway of the table row, day 16.
From the text: as §1, §2
pathway abundance˜aov(day*OCAdose+error(subject ID)) • FGF19 analysis: The GEE model was applied in order to study the relationship of FGF19 change with the microbiome, gene family, and the pathway abundance change over time. The R function geeglm from R package geepack was used for gee modeling. Both FGF19 level and species/gene/pathway relative abundance were log 2 transformed before applying GEE model.

In data set [3] the test system is Lactococcus lactis, Streptococcus thermophilus, and Lactobacillus casei/paracasei. The data set can be described thus: Minimal inhibitory concentrations (MIC) of bile acids and OCA, aerobic and anaerobic. Format: cell-based. The source says:
FIGS. 58A-58B: Minimal inhibitory concentrations (MICs) of selected Gram-positive bacterial species in response treatment with two endogenous bile acids and OCA. […] N=3 per measurement. […] N=3 per measurement.
a (Begley et al., FEMS Microbiol Rev. 29, 625-651 (2005)), and conducted genomic analysis is consistent with the notion that specific Gram-positive taxa become proportionally more abundant during OCA administration due to enhanced proliferation. FXR-dependent inhibition of endogenous bile acid synthesis by OCA may reduce the growth inhibitory effects on Gram-positive bacterial species that are normally sensitive to bile acids. To determine if the three bacterial species with the greatest representation of pathways associated with OCA (FIG. 57A) are sensitive to bile acids, the species-specific minimal inhibitory concentrations (MIC) of the two most predominant bile acids in the human small intestine, glycochenodeoxycholic acid (GCDCA) and glycocholic acid (GCA) were determined (FIG. 58A). Since the environment of the small intestinal lumen may transition from an aerobic to anaerobic state along its length (He et al., Proceedings of the National Academy of Sciences of the United States of America, 96, 4586-4591 (1999)), MICs were determined under both aerobic and anaerobic conditions. […] Consistent with this notion, it has been shown that bile salt hydrolases (BSH), enzymes that are unique to bacteria resident in the mammalian gut where they can enhance bile acid tolerance (Begley et al., FEMS Microbiol Rev. 29, 625-651 (2005)), are missing from the genome of S. thermophilus, which is induced by OCA. It can be supported by showing that these species are sensitive to growth inhibition in vitro when exposed to physiologically-relevant concentrations of conjugated bile acids found in the small intestine. […] Since OCA is a bile acid analogue possibly capable of inhibiting bacterial growth, the MICs of OCA for the same bacterial species were determined (FIG. 58B). […] These findings support the notion that OCA treatment leads to the increased growth of bile acid sensitive bacterial taxa by suppressing endogenous bile acid synthesis.

Data set [4] is described as follows: Calculated small intestinal luminal concentration of OCA. Details: species or system human.
[5] abbreviates: repeated measure ANOVA, FDR<0.05.

As for `CC[C@H]1[C@@H](O)[C@@H]2[C@H](CC[C@]3(C)[C@@H]([C@H](C)CCC(=O)O)CC[C@@H]23)[C@@]2(C)CC[C@@H](O)C[C@@H]12` [OCA, 3α,7α-dihydroxy-6α-ethyl-5β-cholan-24-oic acid], in data set [1] (OCA treatment), the “pathways associated with nucleotide and amino acid biosynthesis” value is “enriched”. In data set [1] (out of 515, FDR<0.05 for time effect), the “number of MetaCyc pathways differentially abundant over time” value is reported as 41. Moreover, in data set [1] (repeated measure ANOVA, FDR<0.01, Example 7), the “number of MetaCyc pathways with significant time effects” value was 135. Besides, in data set [1] (setting [5]), the “OCA dose effect on MetaCyc pathway abundance” value is given as “No OCA dose effect or OCA dose×day interaction was observed”. Further, the “* (direction of KEGG pathway change)” value in data set [2] (Fatty acid biosynthesis) is on record as “↓”; in data set [2] (Purine metabolism) it was “↑”. Further, the “number of KEGG pathways differentially abundant over time” value in data set [2] (of 66, FDR<0.05 for time effect) was found to be 26. For the same compound, in data set [2] (setting [5]), the “OCA dose effect on KEGG pathway abundance” value is recorded as “No OCA dose or dose×day interaction was observed”. Also, the “inhibition of growth of the three bacterial species (MIC determination)” value in data set [3] is “able to inhibit growth of all three bacterial species”. Besides, the “inhibition of growth at OCA concentrations calculated to be reached in the human small intestine” value in data set [3] (˜40 mM at a 10 mg/day dose) is listed as “minimal to no inhibition of growth”. The “calculated physiologic level that would be encountered in the human small intestine” value in data set [4] was “approximately 12 micromolar”.
